Assay results taken from US10202404B2, “Polycyclic pyridone derivative having integrase inhibitory activity” (Shionogi & Co., Ltd., priority 2014, dated 2019).

Test system: HIV
Assay: Anti-HIV activity (MT-4 cells, MTT)
Format: cell-based
Conditions: 50% HIV inhibition concentration, MT-4 cells infected with HIV, incubated 4 days, MTT readout
Method: Previously, a series of two-fold dilution on test samples were carried out in a 96-well plate (50 μL/well). Two plates were made for measuring anti-HIV activity and measuring cytotoxicity. For each agent, measurement in duplicate was carried out. An MT-4 cell suspension of 2.5×10^5/mL was dispensed at 100 μL/well onto the 96-well plate containing the test samples. An HIV virus solution was dispensed at 50 μL/well onto the 96-well plate containing the test samples and the cell. To the plate for measuring cytotoxicity, a culture solution was dispensed at 50 μL/well. It was mixed by a plate mixer, and then incubated in a CO2 incubator for 4 days. […] Thirty microliters of a MTT (3-(4,5-dimethylthiazol-2-yl)-2,5-diphenyltetrazolium bromide) solution was dispensed to each well.
A reaction was allowed to occur in a CO2 incubator for an hour. From each well, 150 μL of the supernatant was removed such that cells are not sucked. One-hundred and fifty microliters of a cell lysis solution was added thereto, and then it was mixed well by a plate mixer until the whole cells are lysed. The mixed 96-well plates were measured by a microplate reader at two wavelengths, 560 nm/690 nm. Based on the following calculation formula, 50% HIV inhibition concentration (EC50) was calculated. EC50=10Z Z=(50%−Low %)/(High %−Low %)×{log(High conc.)−log(Low conc.)}+log(Low conc.) Based on the following calculation formula, 50% cytotoxic concentration (CC50) was calculated. CC50=10Z Z=(50%−Low %)/(High %−Low %)×{log(High conc.)−log(Low conc.)}+log(Low conc.) Based on the following calculation formula, selectivity index (ST) was calculated. SI=CC50/EC50 (Result)

[1] = Human immunodeficiency virus 1, MT4, 96 h

Row | EC50 [1] [nM] | EC50 [nM] | SMILES
1 | 18 |  | O=C1c2c(O)c(=O)c(-c3ncc(Cc4cccc(Cl)c4F)s3)cn2C[C@@H]2CCCCN12 [Compound B-19]
2 | 6.7 |  | O=C1c2c(O)c(=O)c(-c3nnc(Cc4cccc(Cl)c4F)s3)cn2C[C@H]2CCCCN12 [Compound B-5]
3 |  | 2.9 | O=C1c2c(O)c(=O)c(-c3nnc(Cc4ccc(F)cc4F)s3)cn2C[C@@H]2CCCCN12 [Compound B-1]
4 | 7.5 |  | O=C1c2c(O)c(=O)c(-c3nnc(Cc4cccc(Cl)c4F)s3)cn2C[C@@H]2CCCCN12 [Compound B-6]

Further lines, the compound ahead of its results:

Row | SMILES | EC50 [1] [nM] | EC50 [nM]
5 | C[C@@H]1CCO[C@H]2Cn3cc(-c4nnc(C(F)(F)c5cccc(Cl)c5F)s4)c(=O)c(O)c3C(=O)N12 [Compound A-43] | 3.6 | 
6 | O=C1c2c(O)c(=O)c(-c3nnc(Cc4ccc(F)cc4F)s3)cn2C[C@@H]2N1C[C@H]1CCCN12 [Compound A-55] | 1.7 | 
7 | C[C@@H]1CO[C@H]2Cn3cc(-c4ncc(Cc5ccc(F)cc5F)s4)c(=O)c(O)c3C(=O)N12 [Compound A-7] | 6.5 | 
8 | O=C1c2c(O)c(=O)c(-c3nnc(Cc4ccc(F)cc4F)s3)cn2C[C@@H]2O[C@H]3CCC[C@H]3N12 [Compound A-63] | 2 | 
9 | C[C@@H]1CCN2C(=O)c3c(O)c(=O)c(-c4nnc(Cc5ccc(F)cc5F)s4)cn3C[C@@H]2O1 [Compound A-16] | 2.1 | 
10 | C[C@H]1CO[C@@H]2Cn3cc(-c4nnc(Cc5ccc(F)cc5F)s4)c(=O)c(O)c3C(=O)N12 [Compound A-15] | 1.1 | 
11 | O=C1c2c(O)c(=O)c(-c3nnc(Cc4ccc(F)cc4F)s3)cn2C[C@@H]2O[C@H]3COC[C@H]3N12 [Compound A-74] | 12 | 
12 | C[C@@H]1CO[C@H]2Cn3cc(-c4ncc(Cc5cccc(Cl)c5F)s4)c(=O)c(O)c3C(=O)N12 [Compound A-3] | 3.7 | 
13 | C[C@@H]1CO[C@H]2Cn3cc(-c4nnc(Cc5ccc(F)cc5F)s4)c(=O)c(O)c3C(=O)N2C1 [Compound A-21] | 1 | 
14 | C[C@@H]1CCO[C@H]2Cn3cc(-c4nc(C(F)(F)F)c(Cc5ccc(F)cc5F)s4)c(=O)c(O)c3C(=O)N12 [Compound A-48] | 14 | 
15 | C[C@@H]1CCO[C@H]2Cn3cc(-c4ncc(Cc5c(F)cc(F)cc5F)s4)c(=O)c(O)c3C(=O)N12 [Compound A-12] | 4.9 | 
16 | O=C1c2c(O)c(=O)c(-c3nnc(Cc4c(F)cc(F)cc4F)s3)cn2C[C@@H]2CCCCN12 [Compound B-8] | 3.8 | 
17 | O=C1c2c(O)c(=O)c(-c3nnc(Cc4ccc(F)cc4F)s3)cn2C[C@@H]2O[C@H]3CC[C@H](C3)N12 [Compound A-66] | 7.2 | 
18 | C[C@@H]1CCO[C@H]2Cn3cc(-c4nnc(Cc5c(Cl)ccc(Cl)c5F)s4)c(=O)c(O)c3C(=O)N12 [Compound A-27] | 3.5 | 
19 | C[C@@H]1CO[C@H]2Cn3cc(-c4ncc(Cc5ccc(F)cc5F)s4)c(=O)c(O)c3C(=O)N2C1 [Compound A-8] | 3.5 | 
20 | Cc1nc(-c2cn3c(c(O)c2=O)C(=O)N2[C@@H](C)CO[C@@H]2C3)sc1Cc1cccc(Cl)c1F [Compound A-46] | 3.9 | 
21 | Cc1nc(-c2cn3c(c(O)c2=O)C(=O)N2[C@H](C)CCO[C@H]2C3)sc1Cc1cccc(Cl)c1F [Compound A-80] | 6.3 | 
22 | CCN1NCn2cc(-c3nnc(Cc4ccc(F)cc4F)s3)c(=O)c(O)c2C1=O [Compound C-25] | 2.2 | 
23 | Cc1nc(-c2cn3c(c(O)c2=O)C(=O)N2[C@H](C)CCO[C@H]2C3)cn1Cc1ccc(F)cc1F [Compound A-59] | 9.5 | 
24 | COCCN1C(=O)c2c(O)c(=O)c(-c3nnc(Cc4ccc(F)cc4F)s3)cn2CN1C [Compound C-20] | 1.7 | 
25 | C[C@H]1CCO[C@@H]2Cn3cc(-c4ncc(Cc5ccc(F)cc5F)s4)c(=O)c(O)c3C(=O)N12 [Compound A-10] | 4.4 | 
26 | C[C@@H]1CCO[C@H]2Cn3cc(-c4nnc(Oc5ccc(F)cc5F)s4)c(=O)c(O)c3C(=O)N12 [Compound A-51] |  | 6.8
27 | C[C@@H]1CCO[C@H]2Cn3cc(-c4ncc(Cc5cccc(Cl)c5F)s4)c(=O)c(O)c3C(=O)N12 [Compound A-1] | 7.8 | 
